ChEMBL document CHEMBL6087454, “Identification of Novel Organo-Se BTSA-Based Derivatives as Potent, Reversible, and Selective PPARγ Covalent Modulators for Antidiabetic Drug Discovery” (J Med Chem, 2025)
Calls of active or inactive are those of the source. The calls are words filed in the database; no cut-off is given here.

Key:
Mus musculus [1] = test: Antidiabetic activity in male db/db mouse model assessed as downregulation of CD36 gene expression in liver at 2.5 to 10 mg/kg/day, ip administered for 4 weeks by RT-qPCR analysis; type: functional, organism-based; details: dose 2.5-10 mg/kg/day
[2] = Toxicity in male db/db mouse model assessed as decrease in liver weight at 10 mg/kg, ip administered for 4 weeks; type: organism-based; details: in vivo, 672 h
Mus musculus [3] = test: In vivo inhibition of Erk/Cdk5-mediated PPAR-gamma phosphorylation at Ser273 residue in male db/db mouse model assessed as decrease in phosphorylated-MEK expression in white adipose tissue at 2.5 to 10 mg/kg/day, ip administered for 4 weeks by Western blotting analysis; type: functional, organism-based; details: dose 2.5-10 mg/kg/day
Mus musculus [4] = test: In vivo inhibition of Erk/Cdk5-mediated PPAR-gamma phosphorylation at Ser273 residue in male db/db mouse model assessed as decrease in phosphorylated-ERK expression in liver at 2.5 to 10 mg/kg/day, ip administered for 4 weeks by Western blotting analysis; type: functional, organism-based; details: dose 2.5-10 mg/kg/day
Mus musculus [5] = test: Antidiabetic activity in male db/db mouse model assessed as downregulation of PTP1B gene expression in liver at 2.5 to 10 mg/kg/day, ip administered for 4 weeks by RT-qPCR analysis; type: functional, organism-based; details: dose 2.5-10 mg/kg/day

Q: With `Cc1ccc(S(=O)(=O)Oc2ccc(S3(=O)=N[Se]c4cc(OS(=O)(=O)c5ccc(C)cc5)ccc43)cc2)cc1` (stereo not given) as the compound, how does the Activity (Mus musculus [1]) read?
A: The Activity was “Active”.

Q: And the Activity [2]?
A: Its Activity is “Toxic”.

Q: And the inhibition (Mus musculus [3])?
A: The inhibition was “Active”.

Q: What about the inhibition (Mus musculus [4]) of the same compound?
A: Its inhibition is “Active”.

Q: What about the Activity (Mus musculus [5]) of the same compound?
A: The Activity was “Active”.
